Data from US20150018369A1 (priority 2012, published 2015).

What was measured:
[1] = tested on: T98 g cells; assay: Cell viability assay (WST-1), SAR of AI compounds at inducing cell death; type: cell-based, human; conditions: Homo sapiens, T98G, 72 h
Description: Cells were plated media supplemented with 10% serum in 96-well plates (10^4 cells per wellI; 0.1 ml per well). Once they reached ˜70% confluence, they were rinsed with PBS and kept for an additional 24 his in media supplemented with 1% serum, at which time drugs or vehicle (DMSO, 0.1%, prepared in 10 μl serum-free media) were directly added to each well. After 3 days, cell viability was assessed using the Cell Proliferation Reagent WST-1 (Roche, Indianapolis, Ind.). Briefly, WST-1 reagent (10 μl) was added to each well for 3 hrs at 37° C. with 5% CO2 and WST-1 products were read at 450 nm using Packard SpectraCount™.
Because the strongest toxic effect of WIN55212-2 (ST-1) was measured in T98 g cells, these cells are used as readout to study the structure activity relationship (SAR) of AI compounds at inducing cell death. Table 2 provides the chemical structure, potency and efficacy of several AI compounds.

[2] = tested on: CB1; assay: [3H]-CP55940 binding competition at CB1; parameters: species or system human; conditions: FIG. 2c
Description: Fragments were amplified from total RNA of cell lines by reverse transcriptase-polymerase chain reaction (RT-PCR). Sequence was confirmed and the fragment was cloned into the EcoRI site of the pIRES2-eGFP-express vector. Cells were grown to approximately 80% confluence in 10 cm cell culture dishes, transfected with the cDNA pIRES-eGFP-vector containing the human CB1 or CB2 receptor using LipofectAMINE™ 2000 reagent in the serum-free media Opti-MEM 1 according to the manufacturer's description. Cells were subject to FACS sorting 48 his after transfection and single cell sorted based on dsRed expression into 96-well plates. Of the dsRed expressing positive clones, 3 were validated for CB1 and CB2 protein expression by radioligand binding analysis (methods discussed below).
Cells were grown to 90% confluence, rinsed twice with 1× PBS and stored at −80° C. until further use. To prepare crude cellular membrane fractions, dishes were removed from −80° C. and thawed at room temperature for 5 min. Once thawed, cells were lysed with ice-cold homogenization buffer (50 mM Tris, 1 mM EDTA, 3 mM MgCl2) and gently scraped from the dish. Total cell lysates from 3-5 dishes were collected on ice in 3 ml of ice-cold homogenization buffer Cells were homogenized at 6,500 rpm (PRO Scientific, Oxford, Conn.) twice for 10 sec and centrifuged at 11,500 rpm for 20 min at 4° C. […]

[3] = tested on: AI receptors; assay: GTPγS binding in HEK293 cell homogenates; type: biochemical, human
Description: (§1) When comparing the overall amino acid sequence of GPR124 to that of CB1 and CB2 receptors no significant homology was found. However, when focusing the comparison to the amino acid sequence encoding for the third transmembrane domains of GPR124 and CB2 receptors, 84% homology was found (FIG. 5a). […] Therefore, it is likely that ST-1, ST-11, and other AI compounds interact directly with the third transmembrane domain of GPR124. To determine the signaling mechanism of AI receptors, effect of ST-11 in HEX293 cells, which express GPR124 endogenously and commonly used to study GPCR pharmacology and signaling pathway, was tested.

[4] = tested on: AI receptors; assay: cAMP production in HEK293 cells; type: cell-based, human
Description: as §1

[5] = tested on: T98 g cells; assay: Signaling pathway and cell death in T98 g cells; type: cell-based, human
Description: To determine the signaling pathway activated by AI receptors, T98 g cells were treated and changes in select kinase and mediatior of cell death were measured.

[6] = tested on: DBT cells; assay: Killing of DBT mouse astrocytoma cells; type: cell-based; conditions: FIG. 10c
Description: Cannabinoid receptors are known to regulate cell migration.

[7] = tested on: mouse microglia in primary culture; assay: Microglia cell migration; type: cell-based
[8] = tested on: mouse microglia in primary culture; assay: IP production in mouse microglia; type: cell-based
[9] = Accelerating rotarod, acute toxicity in healthy mice; type: in vivo, mouse
Description: As an initial step to test the therapeutic efficacy of ST-11 in vivo, the pharmacokinetic profile and acme toxicity profile of ST-11 in healthy mice were determined. FIG. 13 illustrates an LC-MS chromatogram and calibration curve of ST-11 (a & 13). PK profile of ST-11 (c, d, e & f).

[10] = target: CB2 (Homo sapiens, UniProt P34972); assay: HA-tagged receptor internalization, CB2; type: cell-based; parameters: HA; expressed in transfected cells; conditions: FIG. 2b
Chain of CB2 (P34972 whole entry): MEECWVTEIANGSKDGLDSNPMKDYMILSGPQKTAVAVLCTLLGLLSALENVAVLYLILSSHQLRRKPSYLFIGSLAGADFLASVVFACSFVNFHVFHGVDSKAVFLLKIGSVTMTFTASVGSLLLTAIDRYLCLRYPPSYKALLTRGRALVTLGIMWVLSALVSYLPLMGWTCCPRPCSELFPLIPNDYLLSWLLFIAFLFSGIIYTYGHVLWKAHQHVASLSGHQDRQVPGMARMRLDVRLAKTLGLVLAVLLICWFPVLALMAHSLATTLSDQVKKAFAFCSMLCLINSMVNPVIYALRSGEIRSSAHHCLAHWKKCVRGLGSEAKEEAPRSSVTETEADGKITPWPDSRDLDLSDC
Description: FIGS. 2d and 2e illustrate the co-docking of CP55940 and either WIN55212-2 (d) or ST-11 (e) in hCB1 receptors.

Compound: CCn1c(C)c(C(=O)c2ccc(C)c3ccccc23)c2ccccc21 [ST-11]
- EC50 [1]: 1.3 µM
- competition for [3H]-CP55940 binding at CB1 [2]: but not for [^3H]-CP55940 binding
- GTPγS binding [3]: activation of GTP[…]S binding
- cAMP production [4]: inhibition of cAMP production
- cell death (cell number, nuclear fragmentation, cell blebbing) ([5]; after 48 hrs): followed by cell death
- PARP cleavage ([5]; within hours): cleaves PARP
- activation of PLK-1 ([5]; within hours): induces the activation of PLK-1
- caspase 3 activation ([5]; within hours): caspase 3 activation
- killing of DBT cells [6]: kills DBT cells
- microglia cell migration stimulated by ATP [7]: inhibits
- IP production [8]: does not stimulate or inhibit IP production
- locomotor activity on an accelerating rotarod [9]: does not influence locomotor activity
- cross-activation of human CB2 receptors (receptor internalization) [10]: engage CB2 receptors
